The results in this text go back to patent publication US20100272674A1, “Hepatitis C Virus Inhibitors” (Bristol-Myers Squibb Company, priority 2008, published 2010).

The target of assay [1] is T1, HCV NS3/4A protease complex (Hepatitis C virus genotype 1a, UniProt P27958, C1454S/C1711G).
T1 construct: DNA encoding the recombinant HCV NS3/4A protease complex (amino acids 1027 to 1711) for these strains; inferred from pET21b vector and Ni-NTA purification; made in house; host or cells: Escherichia coli BL21 (DE3)
T1 sequence (P27958 1027-1711 C1454S/C1711G, one chain of several): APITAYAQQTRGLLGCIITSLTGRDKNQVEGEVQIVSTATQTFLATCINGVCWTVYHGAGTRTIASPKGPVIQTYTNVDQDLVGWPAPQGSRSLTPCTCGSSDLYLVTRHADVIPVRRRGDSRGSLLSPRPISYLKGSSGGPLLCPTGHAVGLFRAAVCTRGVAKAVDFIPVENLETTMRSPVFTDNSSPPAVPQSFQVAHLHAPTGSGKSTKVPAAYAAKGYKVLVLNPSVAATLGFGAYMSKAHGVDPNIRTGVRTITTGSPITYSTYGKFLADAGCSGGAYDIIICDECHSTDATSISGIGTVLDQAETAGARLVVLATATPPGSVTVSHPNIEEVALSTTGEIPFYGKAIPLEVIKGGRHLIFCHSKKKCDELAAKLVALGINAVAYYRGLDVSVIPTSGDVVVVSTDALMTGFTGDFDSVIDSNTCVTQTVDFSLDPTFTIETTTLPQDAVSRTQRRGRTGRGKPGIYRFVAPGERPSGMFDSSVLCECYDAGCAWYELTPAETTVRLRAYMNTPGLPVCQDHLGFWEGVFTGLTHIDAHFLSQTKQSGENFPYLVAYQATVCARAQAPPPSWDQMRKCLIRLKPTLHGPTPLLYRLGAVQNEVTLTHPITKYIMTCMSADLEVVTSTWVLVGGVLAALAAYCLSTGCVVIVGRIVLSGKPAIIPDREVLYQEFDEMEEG
In words: FRET peptide assay to monitor HCV NS3/4A proteolytic activity. The format is biochemical. The source says: HCV NS3 protease complexes, derived from the BMS strain, H77 strain or J4L6S strain, were generated, as described below. These purified recombinant proteins were generated for use in a homogeneous assay (see below) to provide an indication of how effective compounds of the present disclosure would be in inhibiting HCV NS3 proteolytic activity.
Serum from an HCV-infected patient was obtained from Dr. T. Wright, San Francisco Hospital. An engineered full-length cDNA (compliment deoxyribonucleic acid) template of the HCV genome (BMS strain) was constructed from DNA fragments obtained by reverse transcription-PCR (RT-PCR) of serum RNA (ribonucleic acid) and using primers selected on the basis of homology between other genotype 1a strains. From the determination of the entire genome sequence, a genotype 1a was assigned to the HCV isolate according to the classification of Simmonds et al. (See P Simmonds, K A Rose, S Graham, S W Chan, F McOmish, B C Dow, E A Follett, P L Yap and H Marsden, J. Clin. Microbial., 31(6), 1493-1503 (1993)). […] The infectious clones, H77 (1a genotype) and J4L6S (1b genotype) were obtained from R. Purcell (NIH) and the sequences are published in Genbank (AAB67036, see Yanagi, M., Purcell, R. H., Emerson, S. U. and Bukh, J. Proc. Natl. Acad. Sci. USA. 94(16), 8738-8743 (1997); AF054247, see Yanagi, M., St Claire, M., Shapiro, M., Emerson, S. U., Purcell, R. H. and Bukh, J., Virology 244 (1), 161-172. (1998)).
The H77 and J4L6S strains were used for production of recombinant NS3/4A protease complexes. DNA encoding the recombinant HCV NS3/4A protease complex (amino acids 1027 to 1711) for these strains was manipulated as described by P. Gallinari et al. (see Gallinari P, Paolini C, Brennan D, Nardi C, Steinkuhler C, De Francesco R. Biochemistry. 38(17):5620-32, (1999)). Briefly, a three-lysine solubilizing tail was added at the 3′-end of the NS4A coding region. The cysteine in the P1 position of the NS4A-NS4B cleavage site (amino acid 1711) was changed to a glycine to avoid the proteolytic cleavage of the lysine tag. […]

Assay [2] deals with HCV replicon in HUH-7 cells. Kind of assay: HCV replicon FRET assay. It is filed as cell-based, Hepatitis C virus (strain 1b). To be noted: Hepatitis C virus, Huh-7, 96 h. From the text:
An HCV replicon whole cell system was established as described by Lohmann V, Korner F, Koch J, Herian U, Theilmann L, Bartenschlager R., Science 285(5424):110-3 (1999). This system enabled us to evaluate the effects of our HCV Protease compounds on HCV RNA replication. Briefly, using the HCV strain 1b sequence described in the Lohmann paper (Assession number:AJ238799), an HCV cDNA was synthesized by Operon Technologies, Inc. (Alameda, Calif.), and the full-length replicon was then assembled in plasmid pGem9zf(+) (Promega, Madison, Wis.) using standard molecular biology techniques. […]
The HCV replicon FRET assay was developed to monitor the inhibitory effects of compounds described in the disclosure on HCV viral replication. […] After 4 days, cells were first assessed for cytotoxicity using alamar Blue (Trek Diagnotstic Systems) for a CC50 reading. The toxicity of compound (CC50) was determined by adding 1/10th volume of alamar Blue to the media incubating the cells. After 4 h, the fluorescence signal from each well was read, with an excitation wavelength at 530 nm and an emission wavelength of 580 nm, using the Cytofluor Series 4000 (Perspective Biosystems). […]
(In general: Replicon systems follow genome replication, usually without infectious particles.)

Assay [3] concerns HCV 1b replicon (Renilla luciferase reporter) in HUH-7 cells. Kind of assay: HCV replicon luciferase reporter assay. The format is cell-based, Hepatitis C virus (strain 1b). To be noted: Huh-7, 96 h, 4 days, read-out: Potency in the 1b luciferase assay. The source says: As a secondary assay, EC50 determinations from the replicon FRET assay were confirmed in a replicon luciferase reporter assay. Utilization of a replicon luciferase reporter assay was first described by Krieger et al (Krieger N, Lohmann V, and Bartenschlager R, J. Virol. 75(10):4614-4624 (2001)). The replicon construct described for our FRET assay was modified by inserting cDNA encoding a humanized form of the Renilla luciferase gene and a linker sequence fused directly to the 3′-end of the luciferase gene. This insert was introduced into the replicon construct using an Asc1 restriction site located in core, directly upstream of the neomycin marker gene. The adaptive mutation at position 1179 (serine to isoleucine) was also introduced (Blight K J, Kolykhalov, A A, Rice, C M, Science 290(5498):1972-1974). A stable cell line constitutively expressing this HCV replicon construct was generated as described above. The luciferase reporter assay was set up as described for the HCV replicon FRET assay with the following modifications. Following 4 days in a 37° C./5% CO2 incubator, cells were analyzed for Renilla Luciferase activity using the Promega Dual-Glo Luciferase Assay System. Media (100 μl) was removed from each well containing cells. To the remaining 50 μl of media, 50 μl of Dual-Glo Luciferase Reagent was added, and plates rocked for […] to 2 h at room temperature. Dual-Glo Stop & Glo Reagent (50 μl) was then added to each well, and plates were rocked again for an additional 10 min to 2 h at room temperature. Plates were read on a Packard TopCount NXT using a luminescence program.
The percentage inhibition was calculated using the formula below: […]
The values were graphed and analyzed using XLfit to obtain the EC50 value.

`COc1cc2ccc3cc2cc1C=CCC(C)(C)COC(=O)N[C@H]1CCCCC/C=C\[C@@H]2C[C@@]2(C(=O)NS(=O)(=O)C2CC2)NC(=O)[C@@H]2C[C@]3(OC)CN2C1=O` (mixture of isomers) [Compound 1] returned an IC50 in assay [1] of 1 nM. For the same compound, the EC50 turned out to be 9.8 nM in assay [2] and 1.6 nM in assay [3].

`COc1cc2ccc3cc2cc1CCCCCCOC(=O)N[C@H]1CCCCCCC[C@@H]2C[C@@]2(C(=O)NS(=O)(=O)C2CC2)NC(=O)[C@@H]2C[C@]3(OC)CN2C1=O` [Compound 2] had an IC50 in assay [1] of 5 nM. In addition, the EC50 in assay [3] came out at 3.9 nM.

`COc1cc2ccc3cc2cc1CCCC(C)(C)CCOC(=O)N[C@H]1CCCCCCC[C@@H]2C[C@@]2(C(=O)NS(=O)(=O)C2CC2)NC(=O)[C@@H]2C[C@]3(OC)CN2C1=O` [Compound 3] came in with a 50% inhibitory concentration (IC50) in assay [1] of 1 nM. Besides, the EC50 in assay [3] turned out to be 2.7 nM.

Usually IC50 stands for the midpoint of a concentration-inhibition curve.
